Converted amounts (≈) assume the structure as drawn.
The molecules below were run on NIH3T3 (assay: Minimum inhibitory concentration for the inhibition of transformation in ras- transformed cells(ras/ NIH3T3)). Details: Mus musculus.
Type: functional

SMILES	MIC
O=C(/C=C/C#Cc1cccc(NS(=O)(=O)c2ccc(Br)cc2)c1)NO	0.16 µM (≈ 0.0674 µg/mL)
O=C(/C=C/C#Cc1cccc(NS(=O)(=O)c2ccc(F)cc2)c1)NO	0.08 µM (≈ 0.0288 µg/mL)
O=C(CCCC/C=C\c1ccccc1NS(=O)(=O)c1ccccc1)NO	17 µM (≈ 6.37 µg/mL)
O=C(/C=C/C=C/c1ccc(NS(=O)(=O)c2ccccc2)cc1)NO	1.6 µM (≈ 0.551 µg/mL)
CN(c1cccc(/C=C/C=C/C(=O)NO)c1)S(=O)(=O)c1ccccc1	0.6 µM (≈ 0.215 µg/mL)
COc1ccc(S(=O)(=O)Nc2cccc(C#C/C=C/C(=O)NO)c2)cc1	0.08 µM (≈ 0.0298 µg/mL)
CN(c1ccccc1/C=C/C=C/C(=O)NO)S(=O)(=O)c1ccccc1	0.8 µM (≈ 0.287 µg/mL)
O=C(/C=C/C#Cc1cccc(NS(=O)(=O)c2ccc([N+](=O)[O-])cc2)c1)NO	0.64 µM (≈ 0.248 µg/mL)
O=C(/C=C/C=C/c1ccccc1NS(=O)(=O)c1ccccc1)NO	1.6 µM (≈ 0.551 µg/mL)
O=C(/C=C/C#Cc1cccc(NS(=O)(=O)c2ccc3ccccc3c2)c1)NO	0.08 µM (≈ 0.0314 µg/mL)
Cc1ccc(S(=O)(=O)Nc2cccc(C#C/C=C/C(=O)NO)c2)cc1	0.16 µM (≈ 0.057 µg/mL)
O=C(/C=C/C=C/c1cc2ccccc2n1S(=O)(=O)c1ccccc1)NO	0.4 µM (≈ 0.147 µg/mL)
O=C(/C=C/C=C/c1cc2ccccc2cc1NS(=O)(=O)c1ccccc1)NO	0.32 µM (≈ 0.126 µg/mL)
O=C(/C=C/C=C/c1cccc(NS(=O)(=O)c2ccccc2)c1)NO	0.3 µM (≈ 0.103 µg/mL)
O=C(CCCC/C=C/c1ccccc1NS(=O)(=O)c1ccccc1)NO	4.3 µM (≈ 1.61 µg/mL)

The molecules below were run on NIH3T3 (assay: Minimum inhibitory concentration for the inhibition of transformation in ras- transformed cells(ras/ NIH3T3); Not effective at the highest concentration tested (100 uM)). Details: Mus musculus.
Type: functional, cell-based

SMILES	MIC
O=C(/C=C/C#CC#Cc1cccc(NS(=O)(=O)c2ccccc2)c1)NO	Not effective at the highest concentration tested (100 uM)

From ChEMBL document CHEMBL1129242, “(2E)-5-[3-[(phenylsulfonyl)amino]phenyl]-pent-2-en-4-ynohydroxamic acid and its derivatives as novel and potent inhibitors of ras transformation” (1996)
